The results in this text go back to patent publication US20100016285A1, “HETEROCYCLIDENE-N-(ARYL) ACETAMIDE DERIVATIVE” (MOCHIDA PHARMACEUTICAL CO., LTD., priority 2007, published 2010).

Each structure is given as a SMILES string.

T1 sequence (Q8NER1 whole entry): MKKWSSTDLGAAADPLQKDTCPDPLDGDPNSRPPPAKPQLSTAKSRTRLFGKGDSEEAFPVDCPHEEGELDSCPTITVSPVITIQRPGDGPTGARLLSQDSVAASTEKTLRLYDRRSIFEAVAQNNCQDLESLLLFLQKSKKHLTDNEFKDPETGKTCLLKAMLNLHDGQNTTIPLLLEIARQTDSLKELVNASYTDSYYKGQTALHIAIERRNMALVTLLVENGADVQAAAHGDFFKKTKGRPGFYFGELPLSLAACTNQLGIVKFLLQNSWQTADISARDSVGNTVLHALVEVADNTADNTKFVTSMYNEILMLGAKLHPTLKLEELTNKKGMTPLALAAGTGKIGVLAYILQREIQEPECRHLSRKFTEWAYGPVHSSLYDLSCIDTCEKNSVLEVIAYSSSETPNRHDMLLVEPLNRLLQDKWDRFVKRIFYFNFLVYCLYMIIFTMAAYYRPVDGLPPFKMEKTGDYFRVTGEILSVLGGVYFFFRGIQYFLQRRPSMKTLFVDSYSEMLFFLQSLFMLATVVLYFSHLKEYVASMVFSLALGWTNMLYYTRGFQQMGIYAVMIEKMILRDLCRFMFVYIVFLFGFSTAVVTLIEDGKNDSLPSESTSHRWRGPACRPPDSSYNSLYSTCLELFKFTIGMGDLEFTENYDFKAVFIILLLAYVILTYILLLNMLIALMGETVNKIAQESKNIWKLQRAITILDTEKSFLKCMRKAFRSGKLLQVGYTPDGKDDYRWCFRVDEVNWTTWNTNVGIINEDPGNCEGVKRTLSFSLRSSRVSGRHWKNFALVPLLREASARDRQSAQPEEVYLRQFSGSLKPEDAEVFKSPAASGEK

The assay addresses T1, human TRPV1 (Homo sapiens, UniProt Q8NER1).
T1 construct: expressed in transfected cells; host or cells: CHO-K1 cells, pCAGGS vector, clones selected by limiting dilution
The assay can be described thus: Capsaicin-induced Ca influx in transformed CHO cells, FDSS-6000 (b-1), A2 value. Type of assay: cell-based. The note with it: concentration shifting the capsaicin concentration-reaction curve two times rightward; CHO cells expressing TRPV1. From the text:
(1) Measurement of Capsaicin-Induced Ca Influx in a Transformed CHO Cell Line Expressing Human TRPV1
(a) Establishment of a Transformed CHO Cell Line Expressing Human and Rat TRPV1
Human and rat vanilloid receptor 1 (hTRPV1 and rTRPV1) cDNA was cloned from human brain and rat dorsal root ganglion, respectively. The cloned TRPV1 cDNA was incorporated in a pCAGGS vector. The vector was introduced to a CHO-K1 cell line, thus performing transformation. Clones obtained by limiting dilution were stimulated with capsaicin. Clones with a high responsiveness were selected using an increase in the Ca concentration as an indicator. The selected clones were used for the following experiment.
(b-1) Measurement of Ca Influx using FDSS-6000
The transformed CHO cells expressing human or rat TRPV1 were seeded in a 96-well plate (with black walls and transparent bottoms, manufactured by Greiner) at a density of 40,000 cells per well. The cells were cultured at 37° C. in 5% CO2 atmosphere for one night. A loading solution of FLIPR Calcium 3 assay kit (manufactured by Molecular Devices Corporation) containing 2.5 mmol/L of probenecid was then added to each of the wells in the same amount as the culture medium, and the cells were cultured at 37° C. for 60 minutes. For three minutes after the cells were stimulated with capsaicin (1 nmol/L to 1 μmol/L), the change of the intracellular Ca concentration was measured using FDSS-6000 (λex: 480 nm, λem: […], manufactured by Hamamatsu Photonics K.K.). The integrated values of the increase rate of the intracellular Ca concentration were calculated for a group treated with the compounds of the present invention and a group treated with a vehicle, thus allowing capsaicin concentration-reaction curves to be obtained. A concentration (A2 value) of each of the compounds of the present invention, at which the capsaicin concentration-reaction curve obtained when the cells were treated with the vehicle was shifted two times rightward, was calculated. The inhibitory effects of the test compounds were compared using this value as an indicator.
As for `CN1C(=O)CCc2ccc(NC(=O)/C=C3\CC(C)(C)Oc4cc(C(F)(F)F)ccc43)cc21` [EXAMPLE 25, (E)-2-(7-trifluoromethyl-2,2-dimethylchroman-4-ylidene)-N-(1-methyl-3,4-dihydro-2(1H)-quinolinon-7-yl)acetamide], the A2 value entry is on record as “A (A2 value of less than 100 nM)”.

As to `O=C(/C=C1\NCCOc2cc(C(F)(F)F)ccc21)Nc1ccc2c(c1)NC(=O)CC2` [EXAMPLE 27, (Z)-2-(8-trifluoromethyl-3,4-dihydrobenzo[f][1,4]oxazepin-5(2H)-ylidene)-N-(3,4-dihydroquinolin-2(1H)-on-7-yl)acetamide], the A2 value result was “A (A2 value of less than 100 nM)”.

Regarding `O=C(/C=C1\CCCOc2cc(C(F)(F)F)ccc21)Nc1ccc2c(c1)NC(=O)C(CO)C2` (stereo not drawn) [EXAMPLE 28, (E)-2-(8-trifluoromethyl-3,4-dihydrobenzo[b]oxepin-5(2H)-ylidene)-N-(3-hydroxymethyl-3,4-dihydro-2(1H)-quinolinon-7-yl)acetamide], the A2 value entry was “A (A2 value of less than 100 nM)”.

`CC1(C)Cc2ccc(NC(=O)/C=C3\CCCOc4cc(C(F)(F)F)ccc43)cc2NC1=O` [EXAMPLE 29, (E)-2-(8-trifluoromethyl-3,4-dihydrobenzo[b]oxepin-5(2H)-ylidene)-N-(3,3-dimethyl-3,4-dihydro-2(1H)-quinolinon-7-yl)acetamide]: the A2 value entry is on record as “A (A2 value of less than 100 nM)”.

As to `O=C(/C=C1\CCCOc2cc(C(F)(F)F)ccc21)Nc1ccc2c(c1)NC(=O)C(N1CCOCC1)C2` (stereo not drawn) [EXAMPLE 34, (E)-2-(8-trifluoromethyl-3,4-dihydrobenzo[b]oxepin-5(2H)-ylidene)-N-(3-(4-morpholinyl)-3,4-dihydro-2(1H)-quinolinon-7-yl)acetamide], the A2 value entry was “A (A2 value of less than 100 nM)”.

On to `O=C1CNc2cccc(NC(=O)/C=C3\CCCOc4cc(C(F)(F)F)ccc43)c2C1` [EXAMPLE 36, (E)-2-(8-trifluoromethyl-3,4-dihydrobenzo[b]oxepin-5(2H)-yliden)-N-(3-oxo-1,2,3,4-tetrahydroquinolin-5-yl)acetamide], for which the A2 value result is listed as “A (A2 value of less than 100 nM)”.

Turning to `O=C(/C=C1\CCCOc2cc(C(F)(F)F)ccc21)Nc1ccc(OCCCO)c2c1CCC(=O)N2` [EXAMPLE 37, (E)-2-(8-trifluoromethyl-3,4-dihydrobenzo[b]oxepin-5(2H)-ylidene)-N-(8-(3-hydroxypropoxy)-3,4-dihydro-2(1H)-quinolinon-5-yl)acetamide], the A2 value entry is recorded as “A (A2 value of less than 100 nM)”.

On to `O=C(/C=C1\CCCOc2cc(C(F)(F)F)ccc21)Nc1ccc2c(c1)NC(=O)N(Cc1ccccc1)C2` [EXAMPLE 38, (E)-2-(8-trifluoromethyl-3,4-dihydrobenzo[b]oxepin-5(2H)-ylidene)-N-(3-benzyl-3,4-dihydro-2(1H)-quinazolinon-7-yl)acetamide], for which the A2 value entry was “A (A2 value of less than 100 nM)”.

For the compound `CN1C(=O)N(Cc2ccccc2)Cc2ccc(NC(=O)/C=C3\CCCOc4cc(C(F)(F)F)ccc43)cc21` [EXAMPLE 39, (E)-2-(8-trifluoromethyl-3,4-dihydrobenzo[b]oxepin-5(2H)-ylidene)-N-(3-benzyl-1-methyl-3,4-dihydro-2(1H)-quinazolinon-7-yl)acetamide], the A2 value entry is listed as “A (A2 value of less than 100 nM)”.

With `CC1(CO)Nc2ccc(NC(=O)/C=C3\CCCOc4cc(C(F)(F)F)ccc43)cc2NC1=O` (stereo not drawn) [EXAMPLE 40, (E)-2-(8-trifluoromethyl-3,4-dihydrobenzo[b]oxepin-5(2H)-ylidene)-N-(3-hydroxymethyl-3-methyl-3,4-dihydro-2(1H)-quinoxalinon-7-yl)acetamide], the A2 value entry was “A (A2 value of less than 100 nM)”.

As to `CN1c2ccc(NC(=O)/C=C3\CCCOc4cc(C(F)(F)F)ccc43)cc2NC(=O)C1(C)CO` (stereo not drawn) [EXAMPLE 41, (E)-2-(8-trifluoromethyl-3,4-dihydrobenzo[b]oxepin-5(2H)-ylidene)-N-(3-hydroxymethyl-3,4-dimethyl-3,4-dihydro-2(1H)-quinoxalinon-7-yl)acetamide], the A2 value entry is “A (A2 value of less than 100 nM)”.

For the compound `COCCN(CCOC)C1Cc2ccc(NC(=O)/C=C3\CCCOc4cc(C(F)(F)F)ccc43)cc2NC1=O` (stereo not drawn) [EXAMPLE 44], the A2 value entry is “A (A2 value of less than 100 nM)”.

Take `COCCN(C)C1Cc2ccc(NC(=O)/C=C3\CCCOc4cc(C(F)(F)F)ccc43)cc2NC1=O` (stereo not drawn) [EXAMPLE 45, (E)-2-(8-trifluoromethyl-3,4-dihydrobenzo[b]oxepin-5-(2H)-ylidene)-N-(3-(N-methyl-N-(2-methoxyethyl)amino)-3,4-dihydro-2(1H)-quinolinon-7-yl)acetamide]: the A2 value entry was “A (A2 value of less than 100 nM)”.

Regarding `O=C(/C=C1\CCCOc2cc(C(F)(F)F)ccc21)Nc1ccc2c(c1)NC(=O)C(N1CCCC1)C2` (stereo not drawn) [EXAMPLE 46], the A2 value result is “A (A2 value of less than 100 nM)”.

As to `O=C(/C=C1\CCCOc2cc(C(F)(F)F)ccc21)Nc1ccc2c(c1)NC(=O)C(N1CC[C@@H](F)C1)C2` (stereo partly drawn) [EXAMPLE 47, (E)-2-(8-trifluoromethyl-3,4-dihydrobenzo[b]oxepin-5(2H)-ylidene)-N-(3-((3S)-fluoropyrrolidin-1-yl)-3,4-dihydro-2(1H)-quinolinon-7-yl)acetamide], the A2 value entry was “A (A2 value of less than 100 nM)”.

Regarding `O=C(/C=C1\CCCOc2cc(C(F)(F)F)ccc21)Nc1ccc2c(c1)NC(=O)C(N1CC[C@@H](O)C1)C2` (stereo partly drawn) [EXAMPLE 48, (E)-2-(8-trifluoromethyl-3,4-dihydrobenzo[b]oxepin-5(2H)-ylidene)-N-(3-((3S)-hydroxypyrrolidin-1-yl)-3,4-dihydro-2(1H)-quinolinon-7-yl)acetamide], the A2 value result is listed as “A (A2 value of less than 100 nM)”.

As to `O=C(/C=C1\CCCOc2cc(C(F)(F)F)ccc21)Nc1ccc2c(c1)NC(=O)C(N1CCNCC1)C2` (stereo not drawn) [EXAMPLE 52, (E)-2-(8-trifluoromethyl-3,4-dihydrobenzo[b]oxepin-5(2H)-ylidene)-N-(3-(1-piperazinyl)-3,4-dihydro-2(1H)-quinolinon-7-yl)acetamide], the A2 value result is reported as “B (A2 value of 100 nM or more)”.

Take `O=C(/C=C1\CCCOc2cc(C(F)(F)F)ccc21)Nc1ccc2c(c1)NC(=O)C(N1CCCOCC1)C2` (stereo not drawn) [EXAMPLE 53, (E)-2-(8-trifluoromethyl-3,4-dihydrobenzo[b]oxepin-5(2H)-ylidene)-N-(3-([1,4]oxazepan-4-yl)-3,4-dihydro-2(1H)-quinolinon-7-yl)acetamide]: the A2 value entry is “A (A2 value of less than 100 nM)”.

Take `O=C(/C=C1\CCCOc2cc(C(F)(F)F)ccc21)Nc1ccc2c(c1)NC(=O)C(N1CCSCC1)C2` (stereo not drawn) [EXAMPLE 54, (E)-2-(B-trifluoromethyl-3,4-dihydrobenzo[b]oxepin-5(2H)-ylidene)-N-(3-(4-thiomorpholinyl)-3,4-dihydro-2(1H)-quinolinon-7-yl)acetamide]: the A2 value result was “A (A2 value of less than 100 nM)”.

`COC1CCN(C2Cc3ccc(NC(=O)/C=C4\CCCOc5cc(C(F)(F)F)ccc54)cc3NC2=O)CC1` (stereo not drawn) [EXAMPLE 55, (E)-2-(8-trifluoromethyl-3,4-dihydrobenzo[b]oxepin-5(2H)-ylidene)-N-(3-(4-methoxy-1-piperidinyl)-3,4-dihydro-2(1H)-quinolinon-7-yl)acetamide]: the A2 value result is listed as “A (A2 value of less than 100 nM)”.

Consider `CO[C@@H]1CCN(C2Cc3ccc(NC(=O)/C=C4\CCCOc5cc(C(F)(F)F)ccc54)cc3NC2=O)C1` (stereo partly drawn) [EXAMPLE 56, (E)-2-(8-trifluoromethyl-3,4-dihydrobenzo[b]oxepin-5(2H)-ylidene)-N-(3-((3S)-methoxypyrrolidin-1-yl)-3,4-dihydro-2(1H)-quinolinon-7-yl)acetamide], for which the A2 value entry was “A (A2 value of less than 100 nM)”.

Turning to `CN(C1CCOCC1)C1Cc2ccc(NC(=O)/C=C3\CCCOc4cc(C(F)(F)F)ccc43)cc2NC1=O` (stereo not drawn) [EXAMPLE 57, (E)-2-(8-trifluoromethyl-3,4-dihydrobenzo[b]oxepin-5(2H)-ylidene)-N-(3-(N-methyl-N-(4-tetrahydropyranyl)amino)-3,4-dihydro-2(1H)-quinolinon-7-yl)acetamide], the A2 value entry is “B (A2 value of 100 nM or more)”.

For `CC1(C)Oc2ccc(NC(=O)/C=C3\CCCOc4cc(C(F)(F)F)ccc43)cc2NC1=O` [Example 1, (E)-2-(8-trifluoromethyl-3,4-dihydrobenzo[b]oxepin-5(2H)-ylidene)-N-(2,2-dimethyl-4H-benzo[1,4]oxazin-3-on-6-yl)acetamide], the A2 value result is “A (A2 value of less than 100 nM)”.

Regarding `CC1Oc2ccc(NC(=O)/C=C3\CCCOc4cc(C(F)(F)F)ccc43)cc2NC1=O` (stereo not drawn) [Example 2, (E)-2-(8-trifluoromethyl-3,4-dihydrobenzo[b]oxepin-5(2H)-ylidene)-N-(2-methyl-4H-benzo[1,4]oxazin-3-on-6-yl)acetamide], the A2 value result is on record as “A (A2 value of less than 100 nM)”.
